The values that follow are results of earlier work, collected in article PMC12042267, “Expanding the Family of Monosubstituted 15-Membered Pyridine-Based Macrocyclic Ligands for Mn(II) Complexation in the Context of MRI” (Inorganic Chemistry, 2025).

For data set [1] the following is noted: cited from earlier work; for r1 (relaxivity): 20 MHz.
The conditions of data set [2]: cited from earlier work.
The conditions of data set [3]: Mn(II) complex, cited from earlier work.
For data set [4] the following is noted: I = 0.15 M NaCl; 25 °C ref 22; cited from earlier work.
For data set [5] the following is noted: cited from earlier work. The source holds these as a separate data set.
Where [6] appears, read: Mn(II), I = 0.15 M NaCl, 25 °C ref 22.

Where two headings read alike, the source gives them in different places.

On to `O.O.[Mn+2].c1cc2nc(c1)CNCCNCCNCCNC2` [Mn(15-pyN5)], for which the “r1 (relaxivity)” value in data set [1] (25 °C, 0.47 T ref 28) is on record as 3.56 mM^–1 s^–1. Further, in data set [2], the “kex^298” value was 6.9 ± 0.7 10^7 s^–1 and the “ΔH^‡” value is listed as 37.7 ± 4 kJ mol^–1.
On to `O.O=C([O-])CN1CCOCCN(CC(=O)[O-])Cc2cccc(n2)C1.[Mn+2]` [Mn(3,9-OPC2A)], for which, in data set [1] (determined at pH 7.4 ref 26), the r1p298 is given as 3.09 mM^–1 s^–1. In addition, the k0 result in data set [3] (Cu(II) transmetalation ref 26) was “(8.6 ± 1.1) × 10^–6 s^–1”. In data set [2], the “kex^298” value is recorded as 5.3 ± 0.4 10^7 s^–1 and the “ΔH^‡” value is given as 28.5 ± 1.7 kJ mol^–1.
Regarding `O.O=P([O-])([O-])CN1CCNCc2cccc(n2)CNCC1.[Mn+2]` [[Mn(PC1P)(H2O)]], the r1p298 in data set [1] (determined at pH 7.4 ref 20) is on record as 2.84 mM^–1 s^–1. For the same compound, in data set [2], the “kex^298” value was 177 ± 9 10^7 s^–1 and the “ΔH^‡” value was 14.0 ± 1.2 kJ mol^–1.
As for `O.O=C([O-])CN1CCNCc2cccc(n2)CNCC1.[Mn+2]` [[Mn(PC1A)(H2O)]^+], the r1p298 in data set [1] (determined at pH 7.4 ref 20) is on record as 2.39 mM^–1 s^–1. In data set [2], the “kex^298” value is listed as 303 ± 19 10^7 s^–1 and the “ΔH^‡” value was 13.0 ± 1.6 kJ mol^–1.
For the compound `O.O.O.O.O.O.[Mn+2]` [[Mn(H2O)6]^2+], the “r1 characteristic of free hexaaqua Mn(II)” value in data set [1] (1.41 T, 60 MHz, 25 °C ref 46) is 6.7 mM^–1 s^–1. Moreover, the “r1 (relaxivity)” value in data set [1] (25 °C, 0.47 T ref 54) is 8.36/– mM^–1 s^–1. In addition, in data set [2], the AO/ℏ is 33.3 10^6 rad s^–1, the “kex^298” value is reported as 2.1 10^7 s^–1, the “ΔH^‡” value is reported as 32.9 kJ mol^–1 and the “ΔS^‡” value is on record as “+5.7 J mol^–1K^–1”. Further, in data set [2], the “Δ^2” value is on record as 5.6 10^18 s^–2, the “τrH^298” value was 30 ps and the “τv^298” value is reported as 3.3 ps.
`NCCN1CCN(CC(=O)O)Cc2cccc(n2)CN(CC(=O)O)CC1` [PC2A-EA]: in data set [4], the “log K1^H” value is listed as 11.34, the “log K2^H” value is recorded as 8.93, the “log K3^H” value was 6.91 and the “log K4^H” value is reported as 1.97. Moreover, in data set [5] (setting [6]), the “log KH2ML” value is 2.50 and the “log KML” value is 19.01. In data set [5] (Mn(II), I = 0.15 M NaCl, 25 °C, log KMnHL in Table 5 ref 22), the “log KHML” value is 6.88. Also, in data set [5] (pH 7.4, cMn = clig = 10^–5 M ref 22), the pMn was 9.27. Moreover, the k1 in data set [3] (Cu(II) transmetalation ref 22) is recorded as 0.6 M^–1 s^–1. Moreover, the “dissociation half-life t1/2” value in data set [3] (calculated for pH 7.4, Cu(II) ref 22) is 333 days.
`O.O=C([O-])CN1CCN(Cc2ccc(-c3ccccc3)cc2)CCN(CC(=O)[O-])Cc2cccc(n2)C1.[Mn+2]` [[Mn(PC2A-BP)(H2O)]]: the r1p298 in data set [1] (determined at pH 7.4 ref 29) is recorded as 4.96 mM^–1 s^–1; in data set [1] (measured in the presence of HSA ref 55) it was 35.7 mM^–1 s^–1. The “kex^298” value in data set [2] (Table 7, footnote h ref 29) is recorded as 6.3 ± 0.2 10^7 s^–1. Also, the “ΔH^‡” value in data set [2] (Table 7, footnote h ref 29) is 35.7 ± 0.1 kJ mol^–1.
Consider `NCCN1CCN(CC(=O)[O-])Cc2cccc(n2)CN(CC(=O)[O-])CC1.O.[Mn+2]` [[Mn(PC2A-EA)(H2O)]], for which the r1p298 is on record as 2.1 mM^–1 s^–1 in data set [1] (298 K and 0.47 T, pH 6.0 ref 22); 3.5 mM^–1 s^–1 in data set [1] (298 K and 0.47 T, pH 7.4 ref 22). The “kex^298” value in data set [2] is recorded as 4.0 ± 0.2 10^7 s^–1.
Regarding `O.O.[Mn+2].c1cc2nc(c1)CNCCOc1ccccc1OCCNC2` [Mn(15-pyN3O2Ph)], the “r1 (relaxivity)” value in data set [1] (25 °C, 0.47 T ref 29) is recorded as 5.16/– mM^–1 s^–1. For the same compound, in data set [2], the AO/ℏ is recorded as 43 10^6 rad s^–1, the “kex^298” value was 0.64 10^7 s^–1, the “ΔH^‡” value is given as 34.0 kJ mol^–1 and the “ΔS^‡” value is “–1.0 J mol^–1K^–1”.
For the compound `O.O=C([O-])CN1CCOCCOCCNCc2cccc(n2)C1.[Mn+2]` [MnL1], in data set [1] (25 °C, 0.47 T ref 30), the “r1 (relaxivity)” value is 2.45 mM^–1 s^–1. For the same compound, the “r1 (relaxivity)” value in data set [1] (37 °C, 0.47 T ref 30) was 2.08 mM^–1 s^–1. Moreover, in data set [2], the AO/ℏ is 38.6 10^6 rad s^–1, the ErH was 15.0 ± 0.5 kJ mol^–1, the “kex^298” value was 0.45 ± 0.02 10^7 s^–1 and the “ΔH^‡” value is 28.1 ± 2.1 kJ mol^–1. In addition, in data set [2], the “ΔS^‡” value is “–23 ± 6 J mol^–1K^–1”, the “Δ^2” value is listed as 160 ± 10 10^18 s^–2, the “τrH^298” value is given as 35 ± 5 ps and the “τv^298” value was 8 ± 1 ps.
